Values quoted from earlier work in patent publication US4556678A (Key Pharmaceuticals, Inc., priority 1982, dated 1985).

[1] = oral formulations currently in use

With `CC(C)NCC(O)COc1cccc2ccccc12` (stereo not drawn) [Propranolol, propranolol] as the compound, how does the bioavailability (administration with food) read?
Its bioavailability is “enhance its bioavailability”.

And the “absorption from the gastrointestinal tract” value [1]?
The value was “almost completely absorbed”.

What about the liver metabolism [1] of the same compound?
Its liver metabolism is “subject to rapid liver metabolism”.
